Results from patent US20240270792A1, “SHORT ANTIMICROBIAL PEPTIDES” (priority 2021, published 2024).
In brackets after ≈: the same amount, converted by molar mass. Square brackets hold non-standard residues; d marks the D form. Ends that are not written are not given here. Peptide text beside a SMILES is read from it. hPhe = N[C@@H](CCc1ccccc1)C(=O)O; αMeF = C[C@](N)(Cc1ccccc1)C(=O)O

How the values were obtained:
[1] = tested on: Enterococcus faecalis ATCC 29212; type: cell-based; settings: Gram-positive, LB, 18-24 hrs at 37° C.
Description: (§1) The following strains were used: • Gram-negative bacteria: Escherichia coli ATCC 25922, Pseudomonas aeruginosa ATCC 27853, Acinetobacter baumannii ATCC 19606, Klebsiella pneumoniae ATCC 13883, • Gram-positive bacteria: Staphylococcus aureus ATCC 25923, multi-drug resistant Staphylococcus aureus ATCC BAA-44, Streptococcus pyogenes ATCC 19615, Listeria ivanovii Li4pVS2, Enterococcus faecalis ATCC 29212,
(§2) For each strain, a standard inoculum of approximately 10^6 bacteria/mL (exponential growth phase) was prepared. To this end, a colony isolated on LB agar previously inoculated with one of the strains was cultured in 4 ml of LB broth medium, except for S. pyogenes and L. ivanovii which were grown in BHI (Brain Heart Infusion) from a colony isolated on BHI agar. Liquid cultures were then incubated for 2 to 3 hrs at 37° C. with shaking for the bacteria to reach exponential growth phase. After centrifugation, most of the bacterial suspensions were diluted in Mueller-Hinton (MH) broth medium to an OD630nm of 0.01, which corresponds to a concentration of approximately 10^6 cfu/mL (cfu: colony forming unit). A different medium was used for E. faecalis (LB) and for S. pyogenes and L. ivanovii (BHI).
(§3) The minimum inhibitory concentration (MIC) of each peptide was determined by a test of growth inhibition in broth medium. […] The test was performed in a sterile 96-well microtiter plate. A series of increasing concentrations of peptide (2 to 400 μM) was first prepared in sterile MilliQ water. 50 μL of each peptide concentration were mixed into the well with 50 μL of bacterial suspension (10^6 cfu/ml). The microtiter plate was then incubated for 18-24 hrs at 37° C. with shaking. Bacterial growth was determined by measuring OD at 630 nm (turbidity) on a plate reader. Tests were carried out in triplicate for each peptide concentration and at least three independent experiments were performed to determine the MIC value.
(§4) The growth inhibition negative control was obtained by replacing the solution containing the peptide with 50 μL of sterile MilliQ water. The positive control allowing the complete inhibition of bacterial growth was obtained by replacing the solution containing the peptide with 50 μL, of 0.7% formaldehyde.

[2] = tested on: Pseudomonas aeruginosa ATCC 27853; type: cell-based; settings: Gram-negative, 18-24 hrs at 37° C.
Description: as §1, §2, §3, §4

[3] = tested on: Staphylococcus aureus; type: cell-based; settings: Gram-positive, 18-24 hrs at 37° C.
Description: as §1, §2, §3, §4

[4] = tested on: Streptococcus pyogenes ATCC 19615; type: cell-based; settings: Gram-positive, BHI, 18-24 hrs at 37° C.
Description: as §1, §2, §3, §4

[5] = Cytotoxicity assay: hemolysis of erythrocytes; type: cell-based; settings: 50% hemolysis, human erythrocytes, 1 h at 37° C., pH 7.4; read-out: LC50 Erythrocytes Human
Description: Hemolytic experiments were performed using human erythrocytes obtained from healthy adult donors (Etablissement Français du sang, Paris, France) according to a previously described protocol (Abbassi et al., “Isolation, characterization and molecular cloning of new temporins from the skin of the North African ranid Pelophylax saharica”, Peptides, 2008, 29: 1526-33).
Briefly, synthetic peptides (1-200 μM, final concentrations) were incubated (100 μL, final volume) with erythrocytes (2×10^7 cells) in Dulbecco's phosphate-buffered saline (pH 7.4) for 1 h at 37° C. After centrifugation (12,000×g, 15 s), the absorbance of the supernatant was measured at 450 nm.

[6] = tested on: Acinetobacter baumannii ATCC 19606; type: cell-based; settings: Gram-negative, 18-24 hrs at 37° C.
Description: as §1, §2, §3, §4

[7] = tested on: Escherichia coli ATCC 25922; type: cell-based; settings: Gram-negative, 18-24 hrs at 37° C.
Description: as §1, §2, §3, §4

[8] = tested on: Listeria ivanovii Li4pVS2; type: cell-based; settings: Gram-positive, BHI, 18-24 hrs at 37° C.
Description: as §1, §2, §3, §4

[9] = tested on: Klebsiella pneumoniae ATCC 13883; test: MIC, growth inhibition in broth medium; type: cell-based; settings: Gram-negative, 18-24 hrs at 37° C.
Description: as §1
as §2, with “A different medium was used for E. faecalis (LB) and for S. pyogenes and L. ivanovii (BHI).” left out
The minimum inhibitory concentration (MIC) of each peptide was determined by a test of growth inhibition in broth medium. […] Bacterial growth was determined by measuring OD at 630 nm (turbidity) on a plate reader. […]

[10] = tested on: Gram-positive and Gram-negative bacteria; settings: cited from earlier work

## FFFFKRFF-NH2 [compound 42]
[1]
  MIC EF: >100 µM
[2]
  MIC PA: 12.5 µM
[3]
  MIC SA: 6.25 µM
[4]
  MIC SP: 12.5 µM
[5]
  HC50 at 1 h: > 200 µM

## FFRRFFFF-NH2 [compound 41]
[6]
  MIC AB: 12.5 µM
[1]
  MIC EF: 50 µM
[7]
  MIC EC: 12.5 µM
[2]
  MIC PA: 12.5 µM
[3]
  MIC SA: 6.25 µM
[4]
  MIC SP: 6.25 µM
[5]
  HC50 at 1 h: > 200 µM

## FRFFRRFF-NH2 [compound 49]
[1]
  MIC EF: >100 µM
[2]
  MIC PA: 6.25 µM
[4]
  MIC SP: 25 µM
[5]
  HC50 at 1 h: > 200 µM

## N=C(N)NCCC[C@H](NC(=O)[C@H](CCCNC(=N)N)NC(=O)[C@H](Cc1ccccc1)NC(=O)[C@H](Cc1ccccc1)NC(=O)[C@H](Cc1ccccc1)NC(=O)[C@@H](N)Cc1ccccc1)C(=O)N[C@@H](Cc1ccccc1)C(=O)N[C@@H](Cc1ccccc1)C(N)=O [compound 39]
[6]
  MIC AB: 25 µM (≈ 30.3 µg/mL)
[1]
  MIC EF: 50 µM (≈ 60.6 µg/mL)
[7]
  MIC EC: 12.5 µM (≈ 15.2 µg/mL)
[8]
  MIC LI: 12.5 µM (≈ 15.2 µg/mL)
[2]
  MIC PA: 12.5 µM (≈ 15.2 µg/mL)
[3]
  MIC SA: 6.25 µM (≈ 7.58 µg/mL)
[4]
  MIC SP: 3 µM (≈ 3.64 µg/mL)
[5]
  HC50 at 1 h: > 200 µM

## FRFRFRFF-NH2 [compound 55]
[1]
  MIC EF: >100 µM
[3]
  MIC SA: 3 µM
[4]
  MIC SP: 12.5 µM
[5]
  HC50 at 1 h: > 200 µM

## FFFRRRFF-NH2 [compound 38]
[6]
  MIC AB: 100 µM
[1]
  MIC EF: >100 µM
[7]
  MIC EC: 25 µM
[2]
  MIC PA: 25 µM
[4]
  MIC SP: 12.5 µM
[5]
  HC50 at 1 h: > 200 µM

## FFFFRKFF-NH2 [compound 43]
[6]
  MIC AB: 12.5 µM
[1]
  MIC EF: 100 µM
[2]
  MIC PA: 12.5 µM
[4]
  MIC SP: 12.5 µM
[5]
  HC50 at 1 h: > 200 µM

## CC[C@H](C)[C@H](NC(=O)[C@H](CCCNC(=N)N)NC(=O)[C@H](CCCNC(=N)N)NC(=O)[C@H](CC(C)C)NC(=O)[C@H](CCc1ccccc1)NC(=O)[C@H](Cc1ccccc1)NC(=O)[C@@H](N)Cc1ccccc1)C(=O)N[C@@H](Cc1ccccc1)C(N)=O [compound 19]
[6]
  MIC AB: 25 µM (≈ 29 µg/mL)
[7]
  MIC EC: 12.5 µM (≈ 14.5 µg/mL)
[2]
  MIC PA: 25 µM (≈ 29 µg/mL)
[3]
  MIC SA: 6.25 µM (≈ 7.24 µg/mL)
[4]
  MIC SP: 12.5 µM (≈ 14.5 µg/mL)
[5]
  HC50 at 1 h: 170 µM

## CC[C@H](C)[C@H](NC(=O)[C@H](CCCNC(=N)N)NC(=O)[C@H](CO)NC(=O)[C@H](CC(C)C)NC(=O)[C@H](Cc1ccccc1)NC(=O)[C@H](Cc1ccccc1)NC(=O)[C@@H](N)Cc1ccccc1)C(=O)N[C@@H](Cc1ccccc1)C(N)=O [compound 2]
[6]
  MIC AB: >100 µM
[1]
  MIC EF: 100 µM (≈ 108 µg/mL)
[7]
  MIC EC: 50 µM (≈ 53.8 µg/mL)
[8]
  MIC LI: 50 µM (≈ 53.8 µg/mL)
[2]
  MIC PA: >100 µM
[3]
  MIC SA: 25 µM (≈ 26.9 µg/mL)
[4]
  MIC SP: 25 µM (≈ 26.9 µg/mL)
[5]
  HC50 at 1 h: > 200 µM

## FFFFSRFF-NH2 [compound 34]
[6]
  MIC AB: >100 µM
[1]
  MIC EF: 100 µM
[7]
  MIC EC: >100 µM
[8]
  MIC LI: 25 µM
[2]
  MIC PA: >100 µM
[3]
  MIC SA: 12.5 µM
[4]
  MIC SP: 6.25 µM
[5]
  HC50 at 1 h: > 200 µM

## N=C(N)NCCC[C@H](NC(=O)[C@H](CCCNC(=N)N)NC(=O)[C@H](Cc1ccccc1)NC(=O)[C@H](CCc1ccccc1)NC(=O)[C@H](Cc1ccccc1)NC(=O)[C@@H](N)Cc1ccccc1)C(=O)N[C@@H](Cc1ccccc1)C(=O)N[C@@H](Cc1ccccc1)C(N)=O [compound 53]
[6]
  MIC AB: 12.5 µM (≈ 15.3 µg/mL)
[1]
  MIC EF: 50 µM (≈ 61.3 µg/mL)
[7]
  MIC EC: 12.5 µM (≈ 15.3 µg/mL)
[2]
  MIC PA: 12.5 µM (≈ 15.3 µg/mL)
[3]
  MIC SA: 3 µM (≈ 3.68 µg/mL)
[4]
  MIC SP: 6.25 µM (≈ 7.67 µg/mL)
[5]
  HC50 at 1 h: 140 µM

## N=C(N)NCCC[C@H](NC(=O)[C@H](CCCNC(=N)N)NC(=O)[C@H](Cc1ccccc1)NC(=O)[C@H](Cc1ccccc1)NC(=O)[C@H](CCc1ccccc1)NC(=O)[C@@H](N)Cc1ccccc1)C(=O)N[C@@H](Cc1ccccc1)C(=O)N[C@@H](Cc1ccccc1)C(N)=O [compound 51] (H-F[hPhe]FFRRFF-NH2; N-terminus assumed)
[9]
  MIC KP: 25 µM (≈ 30.7 µg/mL)
[5]
  CC50 at 1 h: 159 µM

## FRFRFRFR-NH2 [compound 56]
[6]
  MIC AB: 25 µM
[1]
  MIC EF: 30 µM
[7]
  MIC EC: 3 µM
[4]
  MIC SP: 6.25 µM
[5]
  HC50 at 1 h: > 200 µM

## N=C(N)NCCC[C@H](NC(=O)[C@H](CCCNC(=N)N)NC(=O)[C@H](Cc1ccccc1)NC(=O)[C@H](CCCNC(=N)N)NC(=O)[C@H](Cc1ccccc1)NC(=O)[C@@H](N)Cc1ccccc1)C(=O)N[C@@H](Cc1ccccc1)C(=O)N[C@@H](Cc1ccccc1)C(N)=O [compound 50]
[6]
  MIC AB: 100 µM (≈ 122 µg/mL)
[1]
  MIC EF: 100 µM (≈ 122 µg/mL)
[2]
  MIC PA: 12.5 µM (≈ 15.3 µg/mL)
[3]
  MIC SA: 6.25 µM (≈ 7.63 µg/mL)
[4]
  MIC SP: 6.25 µM (≈ 7.63 µg/mL)
[5]
  HC50 at 1 h: > 200 µM

## RFFFRRFF-NH2 [compound 72]
[6]
  MIC AB: 100 µM
[1]
  MIC EF: >100 µM
[2]
  MIC PA: 12.5 µM
[3]
  MIC SA: 6.25 µM
[4]
  MIC SP: 25 µM
[5]
  HC50 at 1 h: > 200 µM

## FF(α-MeF)LSRIFamide (FF[αMeF]LSRIF-NH2; N-terminus assumed; SMILES CC[C@H](C)[C@H](NC(=O)[C@H](CCCNC(=N)N)NC(=O)[C@H](CO)NC(=O)[C@H](CC(C)C)NC(=O)[C@](C)(Cc1ccccc1)NC(=O)[C@H](Cc1ccccc1)NC(=O)[C@@H](N)Cc1ccccc1)C(=O)N[C@@H](Cc1ccccc1)C(N)=O) [SEQ ID No 7, excluded known SHf analog]
[10]
  antimicrobial activity: strong activity against Gram-positive and Gram-negative bacteria, including Klebsiella pneumoniae
